We go through 8 molecules from patent US9018383B2, “Acylamino-substituted cyclic carboxylic acid derivatives and their use as pharmaceuticals” (Sanofi, priority 2009, dated 2015).

Some results are limits rather than exact numbers.

Assay [1] concerns unilateral ureteral obstruction. Particulars: model of unilateral ureteral obstruction; cited from earlier work.
For another assay, the system named is bone metastasis. Conditions: in vivo; cited from earlier work.
For assay [2], the system named is vascular smooth muscle cells and endothelial cells. Conditions: cited from earlier work.
Another assay concerns platelet activation. Conditions: cited from earlier work.
In the next assay the test system is mesangial cells. Conditions: cited from earlier work.
In a further assay the target is human Edg-2 receptor (Homo sapiens, UniProt Q92633). The assay can be described thus: Determination of Edg-2 receptor inhibition by FLIPR measurements (LPA-mediated calcium liberation). It is filed as cell-based. Conditions: CHO cells overexpressing human Edg-2 receptor, LPA 100 nM, fluo-4 calcium fluorescence; read-out: Inhibitory concentrations IC50 for inhibition of the Edg-2 receptor. The gist of the method:
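IC50 was derived from % inhibition of the baseline-corrected peak fluo-4 signal relative to DMSO, measured in triplicate. Compound was added ~5 min before 100 nM LPA (18:1) to human Edg-2–expressing CHO cells in pH 7.5 HBSS buffer with probenecid and HEPES, and fluorescence was monitored ~3 min.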

Chain of human Edg-2 receptor (Q92633 whole entry): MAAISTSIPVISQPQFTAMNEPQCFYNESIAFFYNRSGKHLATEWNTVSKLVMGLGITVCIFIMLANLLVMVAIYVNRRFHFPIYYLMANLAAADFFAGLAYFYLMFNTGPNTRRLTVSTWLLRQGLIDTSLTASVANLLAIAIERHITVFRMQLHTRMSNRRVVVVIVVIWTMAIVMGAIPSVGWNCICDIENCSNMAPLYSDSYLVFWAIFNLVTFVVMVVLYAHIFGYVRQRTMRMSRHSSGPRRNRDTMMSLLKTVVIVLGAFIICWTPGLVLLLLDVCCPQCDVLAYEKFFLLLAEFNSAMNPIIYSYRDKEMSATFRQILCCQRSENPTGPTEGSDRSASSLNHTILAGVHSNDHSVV

Take `Cc1noc(-c2ccc(CSCCC(=O)O)cc2)c1NC(=O)OC(C)c1ccccc1Cl` (centres unmarked) [Ki16425]: the renal injury entry in assay [1] is “attenuated”. In the assay on bone metastasis, the “progression of bone metastasis” value is listed as “reduced”.
With “dioctanoylglycerol pyrophosphate [DGPP(8:0)]”, in assay [2], the LPA-induced oxidative stress entry is reported as “attenuated”. The “effects of LPA, moxLDL or lipid core extracts from human atherosclerotic plaques on platelet activation” value with platelet activation is reported as “abrogated”. Further, the “LPA-induced proliferative response of mesangial cells” value in the assay on mesangial cells is on record as “inhibited”.
Turning to `COc1ncc(C(=O)N[C@]2(C(=O)O)CC[C@H](C)CC2)cc1OCCc1cccc(Cl)c1` [Example 356, cis-1-({5-[2-(3-Chloro-phenyl)-ethoxy]-6-methoxy-pyridine-3-carbonyl}-amino)-4-methyl-cyclohexanecarboxylic acid], the IC50 at human Edg-2 receptor was below 100 nM.
Still for that read-out and setting: the value for `CC[C@H]1CC[C@](NC(=O)c2cnc(O)c(-c3cccc(C(F)(F)F)c3)c2)(C(=O)O)CC1` [Example 426, cis-4-Ethyl-1-{[6-hydroxy-5-(3-trifluoromethyl-phenyl)-pyridine-3-carbonyl]-amino}-cyclohexanecarboxylic acid] was 100 to 1000 nM.
Same read-out and setting: the value for `CC[C@H]1CC[C@@](NC(=O)c2cc(F)c(OC)c(OCCc3cccc(CCO)c3)c2)(C(=O)O)CC1` [Example 394, trans-4-Ethyl-1-(3-fluoro-5-{2-[3-(2-hydroxy-ethyl)-phenyl]-ethoxy}-4-methoxy-benzoylamino)-cyclohexanecarboxylic acid] was below 100 nM; that for `COc1ccc(C(=O)NC2(C(=O)O)CCC(C)C2)cc1OCCc1cccc(C)c1` (centres unmarked) [Example 373] was 100 to 1000 nM; that for `CCC1CCC(NC(=O)c2ccc(OC)c(OCCc3cccc(C)c3)c2)(C(=O)O)CC1` (centres unmarked) [Example 30] was below 100 nM.
The same measure, in the same setting: the value for `Cc1cccc(CCOc2cc(C(=O)N[C@]3(C(=O)O)CC[C@H](C(F)(F)F)CC3)cc3c2OC(F)(F)O3)c1` [Example 454, Cis-1-{[2,2-Difluoro-7-(2-m-tolyl-ethoxy)-benzo[1,3]dioxole-5-carbonyl]-amino}-4-trifluoromethyl-cyclohexanecarboxylic acid] was below 100 nM.
